# In ChEMBL document CHEMBL4507256 (2021):
# Experiments:
# [1] = tested on: Tyrosine-protein kinase ABL1 (Homo sapiens), P00519 [Q252H]; settings: Compound concentration 1000.0 nM
# [2] = target: RAC-alpha serine/threonine-protein kinase (Homo sapiens) (UniProt P31749); settings: Compound concentration 1000.0 nM
# [3] = target: Bone morphogenetic protein receptor type-2 (Homo sapiens) (UniProt Q13873); settings: Compound concentration 1000.0 nM
# [4] = target: Calcium/calmodulin-dependent protein kinase type II subunit alpha (Homo sapiens) (UniProt Q9UQM7); settings: Compound concentration 1000.0 nM
# [5] = target: Cyclin-dependent kinase 11A (Homo sapiens) (UniProt Q9UQ88); settings: Compound concentration 1000.0 nM
# Cyclin-dependent kinase 11A (Homo sapiens), sequence (Q9UQ88 whole entry): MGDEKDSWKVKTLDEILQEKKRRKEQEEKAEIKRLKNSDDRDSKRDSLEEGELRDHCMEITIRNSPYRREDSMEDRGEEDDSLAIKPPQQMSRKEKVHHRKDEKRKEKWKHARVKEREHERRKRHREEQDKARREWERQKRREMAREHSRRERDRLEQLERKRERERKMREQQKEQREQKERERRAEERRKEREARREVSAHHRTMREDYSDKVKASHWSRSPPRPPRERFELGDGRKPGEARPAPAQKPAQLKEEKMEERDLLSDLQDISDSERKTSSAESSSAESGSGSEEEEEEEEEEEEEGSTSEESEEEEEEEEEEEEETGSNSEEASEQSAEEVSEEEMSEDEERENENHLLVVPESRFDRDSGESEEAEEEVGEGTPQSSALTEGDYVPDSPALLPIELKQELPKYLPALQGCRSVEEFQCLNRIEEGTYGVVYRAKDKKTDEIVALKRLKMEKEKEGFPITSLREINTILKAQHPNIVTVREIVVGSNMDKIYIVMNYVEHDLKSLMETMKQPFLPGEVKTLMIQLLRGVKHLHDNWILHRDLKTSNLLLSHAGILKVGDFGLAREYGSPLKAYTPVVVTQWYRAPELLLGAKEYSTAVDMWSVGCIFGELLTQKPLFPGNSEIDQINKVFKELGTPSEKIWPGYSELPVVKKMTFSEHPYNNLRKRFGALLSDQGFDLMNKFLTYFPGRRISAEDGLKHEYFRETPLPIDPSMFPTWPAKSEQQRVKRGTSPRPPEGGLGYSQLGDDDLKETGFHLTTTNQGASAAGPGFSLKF
# [6] = target: Cyclin-dependent kinase 2 (Homo sapiens) (UniProt P24941); settings: Compound concentration 1000.0 nM
# [7] = target: Cyclin-dependent kinase 3 (Homo sapiens) (UniProt Q00526); settings: Compound concentration 1000.0 nM
# [8] = target: Cyclin-dependent kinase 4 (Homo sapiens) (UniProt P11802); settings: Compound concentration 1000.0 nM
# [9] = target: Cyclin-dependent kinase 8 (Homo sapiens) (UniProt P49336); settings: Compound concentration 1000.0 nM
# [10] = target: Ephrin type-A receptor 4 (Homo sapiens) (UniProt P54764); settings: Compound concentration 1000.0 nM
# [11] = target: Ephrin type-A receptor 5 (Homo sapiens) (UniProt P54756); settings: Compound concentration 1000.0 nM
# [12] = target: Ephrin type-B receptor 2 (Homo sapiens) (UniProt P29323); settings: Compound concentration 1000.0 nM
# [13] = target: Ephrin type-B receptor 3 (Homo sapiens) (UniProt P54753); settings: Compound concentration 1000.0 nM
# [14] = target: Receptor tyrosine-protein kinase erbB-2 (Homo sapiens) (UniProt P04626); settings: Compound concentration 1000.0 nM
# [15] = target: Tyrosine-protein kinase Fgr (Homo sapiens) (UniProt P09769); settings: Compound concentration 1000.0 nM
# [16] = target: G protein-coupled receptor kinase 3 (Homo sapiens) (UniProt P35626); settings: Compound concentration 1000.0 nM
# [17] = target: Inhibitor of nuclear factor kappa-B kinase subunit epsilon (Homo sapiens) (UniProt Q14164); settings: Compound concentration 1000.0 nM
# [18] = target: Mast/stem cell growth factor receptor Kit (Homo sapiens) (UniProt P10721); settings: Compound concentration 1000.0 nM
# Mast/stem cell growth factor receptor Kit (Homo sapiens), sequence (P10721 whole entry): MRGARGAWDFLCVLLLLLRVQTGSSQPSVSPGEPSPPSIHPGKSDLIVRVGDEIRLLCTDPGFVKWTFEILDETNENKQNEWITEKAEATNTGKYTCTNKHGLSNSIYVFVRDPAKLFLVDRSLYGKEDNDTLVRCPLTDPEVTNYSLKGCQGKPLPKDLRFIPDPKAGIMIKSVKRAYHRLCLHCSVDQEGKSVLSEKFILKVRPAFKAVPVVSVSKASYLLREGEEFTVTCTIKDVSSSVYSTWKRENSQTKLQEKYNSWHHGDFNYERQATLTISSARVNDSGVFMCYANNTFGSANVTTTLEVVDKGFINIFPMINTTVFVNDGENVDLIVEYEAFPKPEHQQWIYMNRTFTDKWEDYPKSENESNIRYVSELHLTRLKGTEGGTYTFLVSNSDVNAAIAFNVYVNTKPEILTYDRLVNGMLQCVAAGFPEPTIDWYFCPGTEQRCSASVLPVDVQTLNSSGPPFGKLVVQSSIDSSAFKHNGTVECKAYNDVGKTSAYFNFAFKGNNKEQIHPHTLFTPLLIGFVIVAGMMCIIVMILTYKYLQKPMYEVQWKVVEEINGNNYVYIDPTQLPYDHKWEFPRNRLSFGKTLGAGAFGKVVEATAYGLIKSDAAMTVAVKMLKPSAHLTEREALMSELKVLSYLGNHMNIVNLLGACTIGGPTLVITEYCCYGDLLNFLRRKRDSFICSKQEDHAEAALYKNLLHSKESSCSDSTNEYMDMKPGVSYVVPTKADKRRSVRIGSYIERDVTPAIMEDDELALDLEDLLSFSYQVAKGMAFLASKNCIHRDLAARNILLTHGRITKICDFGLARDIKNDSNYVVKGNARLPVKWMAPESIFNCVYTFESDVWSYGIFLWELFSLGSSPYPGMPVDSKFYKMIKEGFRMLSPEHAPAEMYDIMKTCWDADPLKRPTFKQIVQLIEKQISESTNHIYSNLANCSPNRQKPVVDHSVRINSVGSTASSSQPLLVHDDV
# [19] = tested on: Mast/stem cell growth factor receptor Kit (Homo sapiens), P10721 [V559D,T670I]; settings: Compound concentration 1000.0 nM
# Mast/stem cell growth factor receptor Kit (Homo sapiens), P10721 [V559D,T670I], sequence (P10721 whole entry V559D/T670I): as the sequence (P10721 whole entry) above, with V559D, T670I counted along it
# [20] = target: Mitogen-activated protein kinase kinase kinase 13 (Homo sapiens) (UniProt O43283); settings: Compound concentration 1000.0 nM
# [21] = target: Mitogen-activated protein kinase kinase kinase kinase 4 (Homo sapiens) (UniProt O95819); settings: Compound concentration 1000.0 nM
# [22] = target: MAP kinase-interacting serine/threonine-protein kinase 1 (Homo sapiens) (UniProt Q9BUB5); settings: Compound concentration 1000.0 nM
# [23] = target: MAP kinase-interacting serine/threonine-protein kinase 2 (Homo sapiens) (UniProt Q9HBH9); settings: Compound concentration 1000.0 nM
# [24] = target: Mitogen-activated protein kinase kinase kinase 11 (Homo sapiens) (UniProt Q16584); settings: Compound concentration 1000.0 nM
# [25] = target: Macrophage-stimulating protein receptor (Homo sapiens) (UniProt Q04912); settings: Compound concentration 1000.0 nM
# [26] = target: Myosin-IIIb (Homo sapiens) (UniProt Q8WXR4); settings: Compound concentration 1000.0 nM
# [27] = target: Platelet-derived growth factor receptor alpha (Homo sapiens) (UniProt P16234); settings: Compound concentration 1000.0 nM
# [28] = target: Serine/threonine-protein kinase pim-3 (Homo sapiens) (UniProt Q86V86); settings: Compound concentration 1000.0 nM
# [29] = target: Interferon-induced, double-stranded RNA-activated protein kinase (Homo sapiens) (UniProt P19525); settings: Compound concentration 1000.0 nM
# [30] = target: Proto-oncogene tyrosine-protein kinase receptor Ret (Homo sapiens) (UniProt P07949); settings: Compound concentration 1000.0 nM
# Proto-oncogene tyrosine-protein kinase receptor Ret (Homo sapiens), sequence (P07949 whole entry): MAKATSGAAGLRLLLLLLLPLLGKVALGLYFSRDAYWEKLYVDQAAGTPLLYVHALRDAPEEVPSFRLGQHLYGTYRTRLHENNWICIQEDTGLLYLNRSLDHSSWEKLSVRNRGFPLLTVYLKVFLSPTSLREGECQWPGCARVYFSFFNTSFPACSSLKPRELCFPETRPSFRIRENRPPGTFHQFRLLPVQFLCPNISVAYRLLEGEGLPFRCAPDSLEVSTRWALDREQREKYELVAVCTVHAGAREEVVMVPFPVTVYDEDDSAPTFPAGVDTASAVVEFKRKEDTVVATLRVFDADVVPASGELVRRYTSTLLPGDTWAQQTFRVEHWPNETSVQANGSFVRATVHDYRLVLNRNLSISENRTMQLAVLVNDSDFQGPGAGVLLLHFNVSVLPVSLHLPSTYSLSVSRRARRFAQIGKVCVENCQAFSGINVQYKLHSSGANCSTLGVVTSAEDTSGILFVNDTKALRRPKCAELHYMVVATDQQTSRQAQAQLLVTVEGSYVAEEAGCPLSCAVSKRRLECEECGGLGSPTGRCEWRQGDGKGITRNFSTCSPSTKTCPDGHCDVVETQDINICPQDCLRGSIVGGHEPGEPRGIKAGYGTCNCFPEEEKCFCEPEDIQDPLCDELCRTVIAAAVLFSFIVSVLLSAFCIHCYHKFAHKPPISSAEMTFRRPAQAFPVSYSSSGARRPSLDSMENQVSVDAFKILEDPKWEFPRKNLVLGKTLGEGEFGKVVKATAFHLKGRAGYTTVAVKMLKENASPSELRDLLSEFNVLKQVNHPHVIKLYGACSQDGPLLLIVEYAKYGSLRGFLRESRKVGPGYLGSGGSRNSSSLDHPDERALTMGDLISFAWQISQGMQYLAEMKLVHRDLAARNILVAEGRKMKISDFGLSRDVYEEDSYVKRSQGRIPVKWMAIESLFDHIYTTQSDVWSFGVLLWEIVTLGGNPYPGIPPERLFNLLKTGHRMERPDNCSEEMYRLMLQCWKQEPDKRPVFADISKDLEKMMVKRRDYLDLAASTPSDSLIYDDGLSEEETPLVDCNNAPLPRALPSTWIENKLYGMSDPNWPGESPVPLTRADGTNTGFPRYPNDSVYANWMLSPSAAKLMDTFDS
# [31] = target: Serine/threonine-protein kinase RIO3 (Homo sapiens) (UniProt O14730); settings: Compound concentration 1000.0 nM
# [32] = target: Ribosomal protein S6 kinase alpha-4 (Homo sapiens) (UniProt O75676); settings: Compound concentration 1000.0 nM
# [33] = target: Activated CDC42 kinase 1 (Homo sapiens) (UniProt Q07912); settings: Compound concentration 1000.0 nM
# [34] = target: BDNF/NT-3 growth factors receptor (Homo sapiens) (UniProt Q16620); settings: Compound concentration 1000.0 nM
# [35] = target: Dual specificity protein kinase TTK (Homo sapiens) (UniProt P33981); settings: Compound concentration 1000.0 nM
# Dual specificity protein kinase TTK (Homo sapiens), sequence (P33981 whole entry): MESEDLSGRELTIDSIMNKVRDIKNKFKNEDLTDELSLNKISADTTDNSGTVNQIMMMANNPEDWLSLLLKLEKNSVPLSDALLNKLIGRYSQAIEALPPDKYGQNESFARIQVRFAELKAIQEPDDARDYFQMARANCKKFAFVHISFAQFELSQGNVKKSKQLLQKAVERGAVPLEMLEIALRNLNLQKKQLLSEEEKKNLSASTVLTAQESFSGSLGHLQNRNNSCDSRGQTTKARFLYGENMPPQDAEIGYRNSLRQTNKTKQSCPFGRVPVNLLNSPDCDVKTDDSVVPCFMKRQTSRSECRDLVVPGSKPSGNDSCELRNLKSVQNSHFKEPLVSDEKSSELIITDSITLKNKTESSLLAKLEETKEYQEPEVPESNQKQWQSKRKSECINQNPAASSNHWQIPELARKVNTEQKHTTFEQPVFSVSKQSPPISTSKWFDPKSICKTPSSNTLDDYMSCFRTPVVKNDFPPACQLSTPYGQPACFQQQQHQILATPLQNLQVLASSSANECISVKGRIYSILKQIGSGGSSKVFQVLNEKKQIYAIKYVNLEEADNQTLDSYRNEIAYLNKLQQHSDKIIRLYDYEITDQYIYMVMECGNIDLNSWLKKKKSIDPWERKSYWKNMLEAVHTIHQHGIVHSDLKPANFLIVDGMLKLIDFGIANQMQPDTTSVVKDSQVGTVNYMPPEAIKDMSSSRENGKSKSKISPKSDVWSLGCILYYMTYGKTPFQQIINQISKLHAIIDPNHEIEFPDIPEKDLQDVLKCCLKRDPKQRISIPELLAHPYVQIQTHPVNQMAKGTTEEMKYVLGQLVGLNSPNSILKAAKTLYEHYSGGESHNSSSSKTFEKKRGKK
# [36] = target: 5-hydroxytryptamine receptor 1A (Homo sapiens) (UniProt P08908); settings: Compound concentration 10.0 uM
# 5-hydroxytryptamine receptor 1A (Homo sapiens), sequence (P08908 whole entry): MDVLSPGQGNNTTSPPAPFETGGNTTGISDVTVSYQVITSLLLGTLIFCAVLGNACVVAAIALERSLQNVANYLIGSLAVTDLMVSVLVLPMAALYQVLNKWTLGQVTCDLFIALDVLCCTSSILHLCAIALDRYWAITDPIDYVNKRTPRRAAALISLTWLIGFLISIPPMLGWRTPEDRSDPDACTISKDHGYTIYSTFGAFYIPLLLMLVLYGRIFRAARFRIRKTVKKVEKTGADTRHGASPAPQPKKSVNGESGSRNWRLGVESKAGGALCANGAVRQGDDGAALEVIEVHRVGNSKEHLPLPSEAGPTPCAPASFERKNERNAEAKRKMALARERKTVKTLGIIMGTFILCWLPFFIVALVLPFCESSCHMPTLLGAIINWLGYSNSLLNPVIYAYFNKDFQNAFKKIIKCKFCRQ
# [37] = target: T1, 5-hydroxytryptamine receptor 2C (Homo sapiens) (UniProt P28335); settings: Compound concentration 10.0 uM
# T1 sequence (whole entry): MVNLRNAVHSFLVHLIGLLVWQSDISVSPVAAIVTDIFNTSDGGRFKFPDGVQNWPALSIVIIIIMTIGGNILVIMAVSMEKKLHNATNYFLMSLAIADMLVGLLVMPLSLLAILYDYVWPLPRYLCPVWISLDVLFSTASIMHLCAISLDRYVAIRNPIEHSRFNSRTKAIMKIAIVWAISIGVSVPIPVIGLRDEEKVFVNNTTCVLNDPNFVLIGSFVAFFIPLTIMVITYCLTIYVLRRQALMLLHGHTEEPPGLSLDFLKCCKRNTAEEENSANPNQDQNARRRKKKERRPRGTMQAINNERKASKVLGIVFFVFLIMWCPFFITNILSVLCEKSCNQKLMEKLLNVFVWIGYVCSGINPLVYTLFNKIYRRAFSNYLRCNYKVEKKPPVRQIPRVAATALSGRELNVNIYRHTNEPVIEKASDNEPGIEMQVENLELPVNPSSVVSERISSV
# [38] = target: Sodium-dependent noradrenaline transporter (Homo sapiens) (UniProt P23975); settings: Compound concentration 10.0 uM
# [39] = target: Beta-3 adrenergic receptor (Homo sapiens) (UniProt P13945); settings: Compound concentration 10.0 uM
# RAC-alpha serine/threonine-protein kinase (Homo sapiens), sequence (P31749 whole entry): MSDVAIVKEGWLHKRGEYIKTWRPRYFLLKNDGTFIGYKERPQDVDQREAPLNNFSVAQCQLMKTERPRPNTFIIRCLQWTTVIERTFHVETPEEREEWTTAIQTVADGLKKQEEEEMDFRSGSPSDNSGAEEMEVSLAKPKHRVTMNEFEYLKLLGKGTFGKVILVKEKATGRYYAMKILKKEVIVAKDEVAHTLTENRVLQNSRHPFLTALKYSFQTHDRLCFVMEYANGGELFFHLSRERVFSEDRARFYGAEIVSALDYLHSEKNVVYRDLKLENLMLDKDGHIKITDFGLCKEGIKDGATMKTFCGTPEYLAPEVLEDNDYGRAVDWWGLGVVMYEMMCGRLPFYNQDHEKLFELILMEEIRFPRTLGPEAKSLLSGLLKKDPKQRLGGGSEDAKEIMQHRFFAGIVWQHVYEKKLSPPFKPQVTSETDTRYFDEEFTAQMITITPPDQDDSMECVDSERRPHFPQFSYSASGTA
SMILES,residual activity [1],residual activity [2],residual activity [3],residual activity [4],residual activity [5],residual activity [6],residual activity [7],residual activity [8],residual activity [9],residual activity [10],residual activity [11],residual activity [12],residual activity [13],residual activity [14],residual activity [15],residual activity [16],residual activity [17],residual activity [18],residual activity [19],residual activity [20],also measured
CCC(=N\O)/C(C)=C/c1ccc(F)cc1 [A-079],69%,82%,81%,81%,94%,82%,84%,74%,100%,74%,64%,76%,75%,83%,67%,92%,94%,100%,95%,96%,residual activity [21]: 97%; residual activity [22]: 56%; residual activity [23]: 100%; residual activity [24]: 88%; residual activity [25]: 100%; residual activity [26]: 100%; residual activity [27]: 78%; residual activity [28]: 96%; residual activity [29]: 100%; residual activity [30]: 100%; residual activity [31]: 78%; residual activity [32]: 81%; residual activity [33]: 85%; residual activity [34]: 66%; residual activity [35]: 96%; inhibition [36]: 6.81%; inhibition [37]: 32.7%; inhibition [38]: -2.32%; inhibition [39]: -0.54%
CCC(=N\O)/C(C)=C/c1ccc(F)c(C)c1 [A-226],100%,98%,100%,100%,69%,96%,100%,100%,73%,100%,79%,99%,96%,91%,86%,100%,100%,91%,100%,23%,residual activity [21]: 100%; residual activity [22]: 100%; residual activity [23]: 100%; residual activity [24]: 79%; residual activity [25]: 100%; residual activity [26]: 67%; residual activity [27]: 100%; residual activity [28]: 80%; residual activity [29]: 100%; residual activity [30]: 100%; residual activity [31]: 100%; residual activity [32]: 91%; residual activity [33]: 100%; residual activity [34]: 100%; residual activity [35]: 93%; inhibition [36]: 1.12%; inhibition [37]: 27%; inhibition [38]: -0.42%; inhibition [39]: 11.1%
